Experimental data as given in patent US20080227820A1, “CYCLIC PHENYL-SUBSTITUTED INDAZOLS, A PROCESS FOR THEIR PRODUCTION AND THEIR USE AS ANTI-INFLAMMATORY AGENTS” (priority 2006, published 2008).

Experiments:
[1] = molecular target: T1, glucocorticoid receptor (GR) (Homo sapiens, UniProt P04150); test: Binding to recombinant glucocorticoid receptor, Sf9 cytosol, vs [3H]-dexamethasone; conditions: [3H]-dexamethasone reference
T1 construct: made in house; host or cells: Sf9 cells infected with recombinant baculovirus (cytosol preparation)
T1 sequence (P04150 1-777): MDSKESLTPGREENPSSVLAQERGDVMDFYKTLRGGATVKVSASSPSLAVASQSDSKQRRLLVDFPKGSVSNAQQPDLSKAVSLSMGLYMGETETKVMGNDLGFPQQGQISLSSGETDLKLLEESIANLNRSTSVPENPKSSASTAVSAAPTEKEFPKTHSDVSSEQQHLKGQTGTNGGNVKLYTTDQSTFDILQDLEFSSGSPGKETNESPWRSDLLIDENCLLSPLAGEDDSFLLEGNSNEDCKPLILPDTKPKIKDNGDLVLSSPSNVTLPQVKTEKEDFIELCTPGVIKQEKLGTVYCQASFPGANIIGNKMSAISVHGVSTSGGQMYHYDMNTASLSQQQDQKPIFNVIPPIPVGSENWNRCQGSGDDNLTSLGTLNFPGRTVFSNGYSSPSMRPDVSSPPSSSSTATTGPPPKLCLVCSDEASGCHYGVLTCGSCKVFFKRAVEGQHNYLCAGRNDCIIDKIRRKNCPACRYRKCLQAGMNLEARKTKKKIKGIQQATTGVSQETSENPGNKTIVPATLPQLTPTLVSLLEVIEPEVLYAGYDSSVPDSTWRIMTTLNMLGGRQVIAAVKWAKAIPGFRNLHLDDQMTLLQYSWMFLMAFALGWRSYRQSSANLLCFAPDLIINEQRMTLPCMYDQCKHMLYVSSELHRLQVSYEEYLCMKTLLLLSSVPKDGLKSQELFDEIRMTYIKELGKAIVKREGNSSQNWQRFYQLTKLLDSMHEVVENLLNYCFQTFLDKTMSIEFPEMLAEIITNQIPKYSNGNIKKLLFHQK
Description: (§1) The binding of the substances to the glucocorticoid receptor (GR) and other steroid hormone receptors (mineral corticoid receptor (MR), progesterone receptor (PR) and androgen receptor (AR)) is examined with the aid of recombinantly produced receptors. Cytosol preparations of Sf9 cells, which had been infected with recombinant baculoviruses, which code for the GR, are used for the binding studies. In comparison to reference substance [^3H]-dexamethasone, the substances show a high to very high affinity to GR.

androgen receptor (AR) = molecular target: T2, androgen receptor (AR) (Homo sapiens, UniProt P10275); test: Binding to recombinant androgen receptor; conditions: recombinantly produced receptor
T2 sequence (P10275 1-920): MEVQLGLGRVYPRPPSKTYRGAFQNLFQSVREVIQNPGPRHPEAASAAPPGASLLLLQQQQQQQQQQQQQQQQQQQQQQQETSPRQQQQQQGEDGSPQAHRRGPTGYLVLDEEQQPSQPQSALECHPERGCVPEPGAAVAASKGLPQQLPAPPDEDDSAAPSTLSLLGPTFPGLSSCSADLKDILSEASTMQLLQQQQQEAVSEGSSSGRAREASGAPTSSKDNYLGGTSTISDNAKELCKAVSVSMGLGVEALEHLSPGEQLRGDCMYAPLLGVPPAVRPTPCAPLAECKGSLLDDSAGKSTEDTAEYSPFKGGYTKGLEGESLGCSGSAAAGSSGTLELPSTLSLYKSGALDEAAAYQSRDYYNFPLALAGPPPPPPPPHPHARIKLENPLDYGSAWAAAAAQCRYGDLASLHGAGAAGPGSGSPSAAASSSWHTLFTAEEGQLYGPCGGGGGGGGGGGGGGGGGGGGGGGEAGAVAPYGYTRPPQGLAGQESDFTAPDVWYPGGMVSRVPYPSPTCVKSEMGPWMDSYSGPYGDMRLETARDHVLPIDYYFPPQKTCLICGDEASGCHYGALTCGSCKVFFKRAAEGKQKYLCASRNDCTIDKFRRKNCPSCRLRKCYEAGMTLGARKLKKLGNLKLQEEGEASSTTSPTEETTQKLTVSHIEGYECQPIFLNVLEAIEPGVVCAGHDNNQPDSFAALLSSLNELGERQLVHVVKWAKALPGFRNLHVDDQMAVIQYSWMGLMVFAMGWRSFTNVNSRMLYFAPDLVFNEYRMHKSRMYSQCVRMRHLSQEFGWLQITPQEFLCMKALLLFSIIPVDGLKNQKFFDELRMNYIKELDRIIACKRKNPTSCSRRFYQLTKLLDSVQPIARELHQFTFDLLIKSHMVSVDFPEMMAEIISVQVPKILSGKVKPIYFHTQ
Description: as §1

ER = test: Steroid receptor binding, ER
[2] = molecular target: T3, progesterone receptor (PR) (Homo sapiens, UniProt P06401); test: Binding to recombinant progesterone receptor; conditions: recombinantly produced receptor
T3 sequence (P06401 1-933): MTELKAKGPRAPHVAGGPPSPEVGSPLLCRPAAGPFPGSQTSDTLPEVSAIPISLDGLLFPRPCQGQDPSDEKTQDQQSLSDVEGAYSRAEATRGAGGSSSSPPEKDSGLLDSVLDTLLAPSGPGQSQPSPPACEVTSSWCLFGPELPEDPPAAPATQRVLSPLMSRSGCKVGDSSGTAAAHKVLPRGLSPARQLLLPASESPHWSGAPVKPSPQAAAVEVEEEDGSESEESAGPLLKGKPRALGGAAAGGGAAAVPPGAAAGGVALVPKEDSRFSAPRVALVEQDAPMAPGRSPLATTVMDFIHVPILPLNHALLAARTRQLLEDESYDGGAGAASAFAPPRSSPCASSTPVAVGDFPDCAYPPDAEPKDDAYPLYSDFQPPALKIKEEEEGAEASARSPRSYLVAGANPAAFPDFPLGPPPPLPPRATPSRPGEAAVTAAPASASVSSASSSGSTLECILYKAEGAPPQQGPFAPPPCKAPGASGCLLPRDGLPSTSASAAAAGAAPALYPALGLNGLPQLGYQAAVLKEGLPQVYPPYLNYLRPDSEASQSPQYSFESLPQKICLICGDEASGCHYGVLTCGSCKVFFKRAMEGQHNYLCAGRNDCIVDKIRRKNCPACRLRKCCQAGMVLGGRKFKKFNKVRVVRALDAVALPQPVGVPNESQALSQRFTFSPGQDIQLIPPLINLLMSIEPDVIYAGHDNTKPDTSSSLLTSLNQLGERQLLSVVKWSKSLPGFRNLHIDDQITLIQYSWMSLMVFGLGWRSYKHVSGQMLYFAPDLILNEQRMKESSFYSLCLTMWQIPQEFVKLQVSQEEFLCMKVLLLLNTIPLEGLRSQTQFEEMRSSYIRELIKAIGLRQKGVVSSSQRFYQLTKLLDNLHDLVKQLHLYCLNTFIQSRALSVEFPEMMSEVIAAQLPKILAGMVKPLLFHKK
Description: as §1

[3] = tested on: human monocyte cell line THP-1; test: Inhibition of LPS-triggered IL-8 secretion in THP-1 cells (ELISA); type: cell-based
Experimental: The concentration of the cytokines was determined in the supernatant by means of commercially available ELISA kits.

[4] = molecular target: T4, mineral corticoid receptor (MR) (Homo sapiens, UniProt P08235); test: Binding to recombinant mineral corticoid receptor; conditions: recombinantly produced receptor
T4 sequence (P08235 1-984): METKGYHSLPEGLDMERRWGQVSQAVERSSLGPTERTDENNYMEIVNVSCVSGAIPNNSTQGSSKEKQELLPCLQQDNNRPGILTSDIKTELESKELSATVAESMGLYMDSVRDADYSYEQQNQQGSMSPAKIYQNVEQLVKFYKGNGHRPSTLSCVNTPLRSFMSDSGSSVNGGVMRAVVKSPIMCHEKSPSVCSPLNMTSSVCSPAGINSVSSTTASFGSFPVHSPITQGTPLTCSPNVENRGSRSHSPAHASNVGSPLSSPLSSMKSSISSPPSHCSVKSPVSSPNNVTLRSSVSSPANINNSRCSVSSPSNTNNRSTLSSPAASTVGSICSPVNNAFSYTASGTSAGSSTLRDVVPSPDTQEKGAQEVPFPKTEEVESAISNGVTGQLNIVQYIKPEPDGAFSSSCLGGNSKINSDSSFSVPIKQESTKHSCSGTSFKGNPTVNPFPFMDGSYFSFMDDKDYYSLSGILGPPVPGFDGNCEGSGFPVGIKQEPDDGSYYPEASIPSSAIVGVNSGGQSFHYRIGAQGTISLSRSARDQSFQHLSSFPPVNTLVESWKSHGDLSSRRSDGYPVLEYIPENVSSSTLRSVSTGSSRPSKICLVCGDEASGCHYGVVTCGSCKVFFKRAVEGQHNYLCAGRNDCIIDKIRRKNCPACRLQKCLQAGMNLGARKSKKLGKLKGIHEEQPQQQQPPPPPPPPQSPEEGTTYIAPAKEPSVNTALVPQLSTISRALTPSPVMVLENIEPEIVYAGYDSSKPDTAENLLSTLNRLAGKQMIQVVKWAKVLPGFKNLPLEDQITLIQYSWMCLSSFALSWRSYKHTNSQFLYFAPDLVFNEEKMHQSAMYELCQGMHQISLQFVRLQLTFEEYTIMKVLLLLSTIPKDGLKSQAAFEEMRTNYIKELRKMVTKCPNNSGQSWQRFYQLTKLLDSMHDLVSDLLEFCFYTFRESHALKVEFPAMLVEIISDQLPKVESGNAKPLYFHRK
Description: as §1

**Q.** What does the source list for CC[C@@H]1C[C@](O)(C(F)(F)F)[C@@H](Nc2cccc3c2cnn3-c2ccc(F)cc2)c2ccc(F)c(O)c21 [Example 4]?
**A.** IC50 [1]: 16.5 nM; IC50 (androgen receptor (AR)): > 1000 nM; IC50 (ER): > 1000 nM; IC50 [2]: > 1000 nM; IC50 ([3]; Homo sapiens, THP-1, supernatant ELISA, read-out: IC50(IL8)): 2.4 nM; eff. relative to dexamethasone (IL-8 inhibition) ([3]; THP-1, relative to dexamethasone): 91%; IC50 [4]: > 1000 nM
